Results reported in PubChem BioAssay AID330 (DTP/NCI, 2004).
“And” between values parts separate entries of the source, which are not always exact repeats. Identical values can stand only once. Toxic doses and inconclusive results are not listed.

Test system: P388 leukemia ip, CD2F1 mice, survival T/C
Test: NCI In Vivo Anticancer Drug Screen. Data for tumor model P388 Leukemia (intraperitoneal) in CD2F1 (CDF1) mice
Conditions: endpoint: median survival time, higher = longer survival
Procedure, shortened: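 Mice carrying the transplanted tumor received test compound or vehicle. Survival was recorded in each group, and the value is the treated-group measurement divided by that of the vehicle-treated control group.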

[1] = dose: 12.5 mg/kg/injection, schedule: Q01DX005 (ip), vehicle: saline with Tween-80
[2] = dose: 25.0 mg/kg/injection, schedule: Q01DX005 (ip), vehicle: saline with Tween-80
[3] = dose: 12.5 mg/kg/injection, schedule: Q01DX009 (ip), vehicle: saline with Tween-80
[4] = dose: 25.0 mg/kg/injection, schedule: Q01DX009 (ip), vehicle: saline with Tween-80
[5] = dose: 100.0 mg/kg/injection, schedule: Q01DX001 (ip), vehicle: saline with Tween-80
[6] = dose: 200.0 mg/kg/injection, schedule: Q01DX001 (ip), vehicle: saline with Tween-80
[7] = dose: 60.0 mg/kg/injection, schedule: Q01DX005 (ip), vehicle: saline with Tween-80
[8] = dose: 120.0 mg/kg/injection, schedule: Q01DX005 (ip), vehicle: saline with Tween-80
[9] = dose: 50.0 mg/kg/injection, schedule: Q01DX005 (ip), vehicle: Klucel (hydroxypropylcellulose) (HPC)
[10] = dose: 100.0 mg/kg/injection, schedule: Q01DX005 (ip), vehicle: Klucel (hydroxypropylcellulose) (HPC)
[11] = dose: 200.0 mg/kg/injection, schedule: Q01DX005 (ip), vehicle: Klucel (hydroxypropylcellulose) (HPC)

Question: How did the T/C (dose: 12.5 mg/kg/injection, schedule: Q01DX009 (ip), vehicle: saline) turn out when `CN1CCC(=C2c3ccccc3CCc3sccc32)CC1` was run?
Answer: 103 % of control

Question: And the T/C (dose: 25.0 mg/kg/injection, schedule: Q01DX009 (ip), vehicle: saline)?
Answer: 104 % of control

Question: And the T/C (dose: 50.0 mg/kg/injection, schedule: Q01DX009 (ip), vehicle: saline)?
Answer: 101 % of control and 103 % of control

Question: What about the T/C (dose: 100.0 mg/kg/injection, schedule: Q01DX009 (ip), vehicle: saline) of the same compound?
Answer: 108 % of control

Question: With `O=C1OC(OC2OC(=O)C(Cl)=C2Cl)C(Cl)=C1Cl` (stereo not drawn) as the compound, how does the T/C [1] read?
Answer: 104 % of control and 109 % of control

Question: What about the T/C [2] of the same compound?
Answer: 116 % of control and 117 % of control

Question: Which T/C (dose: 6.25 mg/kg/injection, schedule: Q01DX005 (ip), vehicle: saline with Tween-80) does the source give for `OCCN1CCCN(CCCN2c3ccccc3Sc3ccc(C(F)(F)F)cc32)CC1` here?
Answer: 97 % of control

Question: And the T/C [1]?
Answer: 102 % of control

Question: And the T/C [2]?
Answer: 118 % of control

Question: `NN1C(=O)c2cccc3cccc(c23)C1=O` was tested. Which T/C (dose: 3.13 mg/kg/injection, schedule: Q01DX009 (ip), vehicle: saline with Tween-80) did it give?
Answer: 105 % of control

Question: And the T/C (dose: 6.25 mg/kg/injection, schedule: Q01DX009 (ip), vehicle: saline with Tween-80)?
Answer: 100 % of control

Question: And the T/C [3]?
Answer: 100 % of control

Question: And the T/C [4]?
Answer: 105 % of control

Question: Which results are given for `O=C(O)C1CC(Cl)C(O)C(Cl)C1` (stereo not drawn)?
Answer: T/C (dose: 50.0 mg/kg/injection, schedule: Q01DX005 (ip), vehicle: saline with Tween-80): 100 % of control; T/C (dose: 100.0 mg/kg/injection, schedule: Q01DX005 (ip), vehicle: saline with Tween-80): 97 % of control; T/C (dose: 200.0 mg/kg/injection, schedule: Q01DX005 (ip), vehicle: saline with Tween-80): 100 % of control

Question: For `NNC(=O)c1cc2c(cn1)[nH]c1ccccc12`, which T/C (dose: 12.5 mg/kg/injection, schedule: Q01DX009 (ip), vehicle: other) is on record?
Answer: 101 % of control

Question: What about the T/C (dose: 25.0 mg/kg/injection, schedule: Q01DX009 (ip), vehicle: other) of the same compound?
Answer: 98 % of control

Question: And the T/C (dose: 50.0 mg/kg/injection, schedule: Q01DX009 (ip), vehicle: other)?
Answer: 97 % of control

Question: What about the T/C (dose: 100.0 mg/kg/injection, schedule: Q01DX009 (ip), vehicle: other) of the same compound?
Answer: 92 % of control

Question: And the T/C (dose: 200.0 mg/kg/injection, schedule: Q01DX009 (ip), vehicle: other)?
Answer: 101 % of control

Question: For `C=CCNc1nc2c(s1)c1c(O)c3c(O)c(C)c4c(c32)C(=O)C(C)(O/C=C\C(OC)C(C)C(OC(C)=O)C(C)C(O)C(C)C(O)C(C)/C=C/C=C(/C)C(=O)N1)O4` (stereo not drawn), which T/C (dose: 25.0 mg/kg/injection, schedule: Q01DX009 (ip), vehicle: Klucel (hydroxypropylcellulose) (HPC)) is on record?
Answer: 98 % of control

Question: What about the T/C (dose: 50.0 mg/kg/injection, schedule: Q01DX009 (ip), vehicle: Klucel (hydroxypropylcellulose) (HPC)) of the same compound?
Answer: 100 % of control

Question: What about the T/C (dose: 100.0 mg/kg/injection, schedule: Q01DX009 (ip), vehicle: Klucel (hydroxypropylcellulose) (HPC)) of the same compound?
Answer: 100 % of control

Question: What about the T/C (dose: 200.0 mg/kg/injection, schedule: Q01DX009 (ip), vehicle: Klucel (hydroxypropylcellulose) (HPC)) of the same compound?
Answer: 94 % of control

Question: Which results are given for `Cn1c2cc([N+](=O)[O-])ccc2c(=O)c2c(O)cc3c(c21)C=CC(C)(C)O3`?
Answer: T/C [5]: 100 % of control; T/C [6]: 103 % of control

Question: With `[N-]=[N+]=Nc1ccnc2ccc(C3CCCCC3)cc12` as the compound, how does the T/C [7] read?
Answer: 100 % of control

Question: And the T/C [8]?
Answer: 92 % of control

Question: And the T/C (dose: 240.0 mg/kg/injection, schedule: Q01DX005 (ip), vehicle: saline with Tween-80)?
Answer: 100 % of control

Question: With `CC1(C)CC(=O)C(C(c2ccccc2O)C2C(=O)CC(C)(C)CC2=O)C(=O)C1` as the compound, how does the T/C [9] read?
Answer: 102 % of control

Question: And the T/C [10]?
Answer: 102 % of control

Question: What about the T/C [11] of the same compound?
Answer: 102 % of control

Question: Which T/C (dose: 18.75 mg/kg/injection, schedule: Q01DX009 (ip), vehicle: Klucel (hydroxypropylcellulose) (HPC)) does the source give for `C[C@@H]1CCC[C@@H](NC(=O)N(CCCl)N=O)C1` here?
Answer: 176 % of control

Question: What about the T/C (dose: 37.5 mg/kg/injection, schedule: Q01DX009 (ip), vehicle: Klucel (hydroxypropylcellulose) (HPC)) of the same compound?
Answer: 193 % of control

Question: And the T/C (dose: 75.0 mg/kg/injection, schedule: Q01DX009 (ip), vehicle: Klucel (hydroxypropylcellulose) (HPC))?
Answer: 249 % of control

Question: Which results are given for `N#C/C=C/c1cccc([N+](=O)[O-])c1`?
Answer: T/C [5]: 100 % of control; T/C [6]: 100 % of control; T/C (dose: 400.0 mg/kg/injection, schedule: Q01DX001 (ip), vehicle: saline with Tween-80): 100 % of control

Question: Which results are given for `COC(=O)/C=C1\CC(C)C2=C(N1)SCC2=O` (stereo not drawn)?
Answer: T/C [9]: 105 % of control; T/C [10]: 105 % of control; T/C [11]: 100 % of control

Question: Which T/C [7] does the source give for `Cc1ccc(NC(=O)/C=C2\CONC(c3ccccc3)=N2)cc1` here?
Answer: 91 % of control

Question: What about the T/C [8] of the same compound?
Answer: 91 % of control

Question: Which results are given for `O=S(=O)(Cl)C(F)(F)C(F)(F)C(F)(F)C(F)(F)C(F)(F)C(F)(F)F`?
Answer: T/C [3]: 100 % of control; T/C [4]: 104 % of control; T/C (dose: 50.0 mg/kg/injection, schedule: Q01DX009 (ip), vehicle: saline with Tween-80): 100 % of control and 93 % of control; T/C (dose: 100.0 mg/kg/injection, schedule: Q01DX009 (ip), vehicle: saline with Tween-80): 112 % of control
